Test results reported in US7459451B2, “Pyrazolopyridine derivatives” (Astellas Pharma Inc., priority 2004, dated 2008).

## CCOC(=O)c1c(C)nc2c(cnn2CC)c1-c1ccnc(Cl)c1 [Example 3, Ethyl 4-(2-chloro-4-pyridyl)-1-ethyl-6-methyl-1H-pyrazolo[3,4-b]pyridine-5-carboxylate]
  melting point: 109 to 110 °C

## CCn1ncc2c(-c3cncc(C)c3)c(C(=O)NCc3ccc(OC)cc3)c(-c3ccccc3)nc21 [Example 65, 1-ethyl-N-(4-methoxybenzyl)-4-(5-methyl-3-pyridyl)-6-phenyl-1H-pyrazolo[3,4-b]pyridine-5-carboxamide]
  melting point: 203 to 204 °C

## CCn1ncc2c(-c3cncc(C)c3)c(C(=O)NC3Cc4ccccc4C3)c(-c3ccccc3)nc21 [Example 66, N-(2,3-Dihydro-1H-inden-2-yl)-1-ethyl-4-(5-methyl-3-pyridyl)-6-phenyl-1H-pyrazolo[3,4-b]pyridine-5-carboxamide]
  melting point: 269 to 270 °C

## CCn1ncc2c(-c3cncc(C)c3)c(C#N)c(C)nc21 [Example 74, 1-Ethyl-6-methyl-4-(5-methyl-3-pyridyl)-1H-pyrazolo[3,4-b]pyridine-5-carbonitrile]
  melting point: 160 to 161 °C

## CCn1ncc2c(-c3cncc(C)c3)c(CCC(=O)O)c(-c3ocnc3C)nc21 [Example 79, 3-[1-ethyl-6-(4-methyl-1,3-oxazol-5-yl)-4-(5-methyl-3-pyridyl)-1H-pyrazolo[3,4-b]pyridin-5-yl]propanoic acid]
  melting point: 184 to 185.5 °C

## CCn1ncc2c(-c3cncc(C)c3)c(/C=C/C(=O)O)c(COC)nc21 [Example 82, (2E)-3-[1-ethyl-6-(methoxymethyl)-4-(5-methyl-3-pyridyl)-1H-pyrazolo[3,4-b]pyridin-5-yl]acrylic acid]
  melting point: 195 to 196 °C

## CCn1ncc2c(-c3cncc(C)c3)c(/C=C/C(=O)O)c(C)nc21 [Example 85, (2E)-3-[1-Ethyl-6-methyl-4-(5-methyl-3-pyridyl)-1H-pyrazolo[3,4-b]pyridin-5-yl]acrylic acid]
  melting point: 239 to 241 °C

## CCn1ncc2c(-c3cncc(Br)c3)c(C(=O)O)c(COC)nc21 [Example 86, 4-(5-Bromo-3-pyridyl)-1-ethyl-6-(methoxymethyl)-1H-pyrazolo[3,4-b]pyridine-5-carboxylic acid]
  melting point: 162 to 163 °C

## CCn1ncc2c(-c3cncc(C)c3)c(/C=C/C(=O)O)c(COCC3CC3)nc21 [Example 87, (2E)-3-[6-[(Cyclopropylmethoxy)methyl]-1-ethyl-4-(5-methyl-3-pyridyl)-1H-pyrazolo[3,4-b]pyridin-5-yl]acrylic acid]
  melting point: 187 to 189 °C

## CCn1ncc2c(-c3cncc(Br)c3)c(/C=C/C(=O)O)c(COCC3CC3)nc21 [Example 88, (2E)-3-{4-(5-Bromo-3-pyridyl)-6-[(cyclopropylmethoxy)methyl]-1-ethyl-1H-pyrazolo[3,4-b]pyridin-5-yl}acrylic acid]
  melting point: 183 to 184 °C

## Cc1cncc(-c2c(/C=C/C(=O)O)c(C)nc3c2cnn3C)c1 [Example 90, (2E)-3-[1,6-Dimethyl-4-(5-methyl-3-pyridyl)-1H-pyrazolo[3,4-b]pyridin-5-yl]acrylic acid]
  melting point: 269 to 272 °C

## CCn1ncc2c(-c3cncc(C)c3)c(CCC(=O)O)c(COC)nc21 [Example 92, 3-[1-Ethyl-6-(methoxymethyl)-4-(5-methyl-3-pyridyl)-1H-pyrazolo[3,4-b]pyridin-5-yl]propanoic acid]
  melting point: 154 to 155 °C

## CCn1ncc2c(-c3cncc(Br)c3)c(CCC(=O)O)c(C)nc21 [Example 93, 3-[4-(5-Bromo-3-pyridyl)-1-ethyl-6-methyl-1H-pyrazolo[3,4-b]pyridin-5-yl]propanoic acid]
  melting point: 178 to 179.5 °C

## CCn1ncc2c(-c3cncc(C)c3)c(CCC(=O)O)c(C)nc21 [Example 94, 3-[1-Ethyl-6-methyl-4-(5-methyl-3-pyridyl)-1H-pyrazolo[3,4-b]pyridin-5-yl]propanoic acid]
  melting point: 179 to 181 °C

## CCn1ncc2c(-c3cncc(C)c3)c(CCC(=O)O)c(COCC3CCCCC3)nc21 [Example 96, 3-[6-[(Cyclohexylmethoxy)methyl]-1-ethyl-4-(5-methyl-3-pyridyl)-1H-pyrazolo[3,4-b]pyridin-5-yl]propanoic acid]
  melting point: 183 to 184 °C

## Cc1cncc(-c2c(CCC(=O)O)c(C)nc3c2cnn3C)c1 [Example 97, 3-[1,6-Dimethyl-4-(5-methyl-3-pyridyl)-1H-pyrazolo[3,4-b]pyridin-5-yl]propanoic acid]
  melting point: 205 to 207 °C

## CCn1ncc2c(-c3cncc(C)c3)c(CCC(=O)O)c(-c3ccccc3)nc21 [Example 98, 3-[1-Ethyl-4-(5-methyl-3-pyridyl)-6-phenyl-1H-pyrazolo[3,4-b]pyridin-5-yl]propanoic acid]
  melting point: 235 to 237 °C

## CCn1ncc2c(-c3cncc(C)c3)c(CCC(=O)O)c(C#N)nc21 [Example 100, 3-[6-Cyano-1-ethyl-4-(5-methyl-3-pyridyl)-1H-pyrazolo[3,4-b]pyridin-5-yl]propanoic acid]
  melting point: 209 to 210 °C

## CCn1ncc2c(-c3cncc(C)c3)c(/C=C/C(=O)O)c(C3CCCCC3)nc21 [Example 190, (2E)-3-[6-Cyclohexyl-1-ethyl-4-(5-methyl-3-pyridyl)-1H-pyrazolo[3,4-b]pyridin-5-yl]acrylic acid]
  melting point: 255 to 257 °C

## CCn1ncc2c(-c3cccc(Cl)c3)c(/C=C/C(=O)O)c(COC)nc21 [Example 191, (2E)-3-[4-(3-Chlorophenyl)-1-ethyl-6-(methoxymethyl)-1H-pyrazolo[3,4-b]pyridin-5-yl]acrylic acid]
  melting point: 234 to 235 °C

## CCn1ncc2c(-c3cncc(C)c3)c(CCC(=O)O)c(C(C)C)nc21 [Example 194, 3-[1-Ethyl-6-isopropyl-4-(5-methyl-3-pyridyl)-1H-pyrazolo[3,4-b]pyridin-5-yl]propanoic acid]
  melting point: 203 to 205 °C

## CCC(CC)c1nc2c(cnn2CC)c(-c2cncc(C)c2)c1/C=C/C(=O)O [Example 201, (2E)-3-[1-Ethyl-6-(1-ethylpropyl)-4-(5-methyl-3-pyridyl)-1H-pyrazolo[3,4-b]pyridin-5-yl]acrylic acid]
  melting point: 197 to 199 °C

## CCn1ncc2c(-c3ccnc(Cl)c3)c(/C=C/C(=O)O)c(-c3ccccc3)nc21 [Example 204, (2E)-3-[4-(2-Chloro-4-pyridyl)-1-ethyl-6-phenyl-1H-pyrazolo[3,4-b]pyridin-5-yl]acrylic acid]
  melting point: > 250 °C

## CCn1ncc2c(CC3CCCCC3)c(/C=C/C(=O)O)c(-c3ccccc3)nc21 [Example 206, (2E)-3-[4-(Cyclohexylmethyl)-1-ethyl-6-phenyl-1H-pyrazolo[3,4-b]pyridin-5-yl]acrylic acid]
  melting point: 201 to 202 °C

## CCn1ncc2c(-c3ccc(Cl)s3)c(/C=C/C(=O)O)c(-c3ccccc3)nc21 [Example 207, (2E)-3-[4-(5-Chloro-2-thienyl)-1-ethyl-6-phenyl-1H-pyrazolo[3,4-b]pyridin-5-yl]acrylic acid]
  melting point: 187 to 188 °C

## CCn1ncc2c(-c3ccc(Cl)nc3)c(/C=C/C(=O)O)c(-c3ccccc3)nc21 [Example 208, (2E)-3-[4-(6-Chloro-3-pyridyl)-1-ethyl-6-phenyl-1H-pyrazolo[3,4-b]pyridin-5-yl]acrylic acid]
  melting point: 255 to 258 °C

## CCn1ncc2c(-c3ccccc3)c(/C=C/C(=O)O)c(-c3ccccc3)nc21 [Example 211, (2E)-3-(1-Ethyl-4,6-diphenyl-1H-pyrazolo[3,4-b]pyridin-5-yl)acrylic acid]
  melting point: > 250 °C

## CCn1ncc2c(-c3cncc(C)c3)c(/C=C/C(=O)O)c(C(C)C)nc21 [Example 212, (2E)-3-[1-Ethyl-6-isopropyl-4-(5-methyl-3-pyridyl)-1H-pyrazolo[3,4-b]pyridin-5-yl]acrylic acid]
  melting point: 247 to 248 °C

## CCn1ncc2c(-c3cncc(Cl)c3)c(/C=C/C(=O)O)c(-c3ccccc3)nc21 [Example 213, (2E)-3-[4-(5-Chloro-3-pyridyl)-1-ethyl-6-phenyl-1H-pyrazolo[3,4-b]pyridin-5-yl]acrylic acid]
  melting point: 242 to 244 °C

## CCn1ncc2c(-c3cncc(C)c3)c(/C=C/C(=O)O)c(C3CC3)nc21 [Example 214, (2E)-3-[6-Cyclopropyl-1-ethyl-4-(5-methyl-3-pyridyl)-1H-pyrazolo[3,4-b]pyridin-5-yl]acrylic acid]
  melting point: 221 to 222 °C

## CCn1ncc2c(-c3cncc(C)c3)c(/C=C/C(=O)O)c(CC(C)C)nc21 [Example 215, (2E)-3-[1-Ethyl-6-isobutyl-4-(5-methyl-3-pyridyl)-1H-pyrazolo[3,4-b]pyridin-5-yl]acrylic acid]
  melting point: 212 to 213 °C

## CCn1ncc2c(-c3cncc(OC)c3)c(/C=C/C(=O)O)c(-c3ccccc3)nc21 [Example 218, (2E)-3-[1-Ethyl-4-(5-methoxy-3-pyridyl)-6-phenyl-1H-pyrazolo[3,4-b]pyridin-5-yl]acrylic acid]
  melting point: 253 to 254 °C

## CCn1ncc2c(-c3ccc(Cl)s3)c(/C=C/C(=O)O)c(C(C)C)nc21 [Example 224, (2E)-3-[4-(5-Chloro-2-thienyl)-1-ethyl-6-isopropyl-1H-pyrazolo[3,4-b]pyridin-5-yl]acrylic acid]
  melting point: 163 to 165 °C

## CCn1ncc2c(-c3cncc(Br)c3)c(/C=C/C(=O)O)c(C(C)C)nc21 [Example 225, (2E)-3-[4-(5-Bromo-3-pyridyl)-1-ethyl-6-isopropyl-1H-pyrazolo[3,4-b]pyridin-5-yl]acrylic acid]
  melting point: 234 to 235 °C

## CCn1ncc2c(-c3cncc(Br)c3)c(/C=C/C(=O)O)c(COC)nc21 [Example 226, (2E)-3-[4-(5-Bromo-3-pyridyl)-1-ethyl-6-(methoxymethyl)-1H-pyrazolo[3,4-b]pyridin-5-yl]acrylic acid]
  melting point: 180 to 182 °C

## CCn1ncc2c(-c3cncc(Cl)c3)c(/C=C/C(=O)O)c(C(C)C)nc21 [Example 228, (2E)-3-[4-(5-Chloro-3-pyridyl)-1-ethyl-6-isopropyl-1H-pyrazolo[3,4-b]pyridin-5-yl]acrylic acid]
  melting point: 218 to 220.5 °C

## CCn1ncc2c(-c3cncc(C)c3)c(CCC(=O)O)c(C3CCC3)nc21 [Example 230, 3-[6-cyclobutyl-1-ethyl-4-(5-methyl-3-pyridyl)-1H-pyrazolo[3,4-b]pyridin-5-yl]propanoic acid]
  melting point: 212 to 213 °C
